In ChEMBL document CHEMBL4118120, “Identification of a novel selective small-molecule inhibitor of protein arginine methyltransferase 5 (PRMT5) by virtual screening, resynthesis and biological evaluations” (Bioorg Med Chem Lett, 2018):
Activity calls are given as the source filed them. No cut-off for these calls is given here.

Columns and labels:
[1] = biological target: T1, PRMT5/MEP50 complex (Homo sapiens) (UniProt O14744+Q9BQA1); assay: (§1) Inhibition of recombinant human N-terminal FLAG-tagged PRMT5 (2 to end residues) /human N-terminal His-tagged MEP50 (2 to end residues) expressed in HEK293F cells at 50 uM using substrate pretreated for 15 mins followed by substrate and [3H]-SAM addition measured after 60 mins by scintillation proximity assay relative to control; assay type: cell-based
PRMT5/MEP50 complex [2] = biological target: T2, PRMT5/MEP50 complex (Homo sapiens, UniProt O14744); assay: Inhibition of recombinant human N-terminal FLAG-tagged PRMT5 (2 to end residues) /human N-terminal His-tagged MEP50 (2 to end residues) expressed in HEK293F cells using substrate measured after 60 mins by Alphalisa assay; assay type: cell-based
T2 sequence (O14744 whole entry): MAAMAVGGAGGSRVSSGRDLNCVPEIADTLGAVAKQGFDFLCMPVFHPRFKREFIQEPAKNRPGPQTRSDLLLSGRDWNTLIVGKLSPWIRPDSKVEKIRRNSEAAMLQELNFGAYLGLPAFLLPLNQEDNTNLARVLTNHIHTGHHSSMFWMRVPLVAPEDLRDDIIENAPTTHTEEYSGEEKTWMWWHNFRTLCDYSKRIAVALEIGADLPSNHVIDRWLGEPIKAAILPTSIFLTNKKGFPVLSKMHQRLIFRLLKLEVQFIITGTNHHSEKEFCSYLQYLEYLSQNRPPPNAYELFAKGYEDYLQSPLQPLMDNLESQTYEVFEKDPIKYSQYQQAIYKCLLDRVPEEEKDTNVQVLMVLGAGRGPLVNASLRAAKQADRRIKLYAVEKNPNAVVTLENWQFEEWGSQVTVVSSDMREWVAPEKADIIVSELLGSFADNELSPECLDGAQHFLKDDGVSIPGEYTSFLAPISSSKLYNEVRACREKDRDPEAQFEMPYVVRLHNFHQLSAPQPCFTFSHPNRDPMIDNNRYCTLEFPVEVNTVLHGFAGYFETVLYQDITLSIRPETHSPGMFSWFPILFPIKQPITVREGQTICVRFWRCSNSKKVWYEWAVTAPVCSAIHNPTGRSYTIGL
T2 sequence (Q9BQA1 whole entry, further chain): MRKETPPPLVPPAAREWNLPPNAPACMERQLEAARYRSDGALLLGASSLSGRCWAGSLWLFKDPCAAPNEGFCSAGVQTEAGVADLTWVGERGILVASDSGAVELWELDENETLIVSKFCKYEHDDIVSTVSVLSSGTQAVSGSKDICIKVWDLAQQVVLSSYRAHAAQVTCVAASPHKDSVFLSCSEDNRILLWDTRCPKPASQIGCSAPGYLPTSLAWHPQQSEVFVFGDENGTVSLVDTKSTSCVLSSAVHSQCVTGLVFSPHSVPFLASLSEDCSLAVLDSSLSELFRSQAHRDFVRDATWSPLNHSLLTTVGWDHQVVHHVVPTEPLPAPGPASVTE

PRMT5/MEP50 complex [3] = biological target: T2, PRMT5/MEP50 complex; assay: as §1, with “cells” for “cells at 50 uM”, “assay” for “assay relative to control”; assay type: cell-based
[4] = biological target: T1, PRMT5/MEP50 complex (Homo sapiens); assay: as §1, with “at 100” for “at 50”; assay type: cell-based
PRMT5/MEP50 complex [5] = biological target: T2, PRMT5/MEP50 complex; assay: Inhibition of recombinant human N-terminal FLAG-tagged PRMT5 (2 to end residues) /human N-terminal His-tagged MEP50 (2 to end residues) expressed in HEK293F cells using biotinylated H4 derived peptide as substrate pretreated for 15 mins followed by substrate and [3H]-SAM addition measured after 60 mins by liquid scintillation counting method
[6] = biological target: Protein arginine N-methyltransferase 5 (Homo sapiens) (UniProt O14744); assay: Inhibition of PRMT5 in human MV411 cells assessed as upregulation of Gas1 expression at 30 uM by SYBR green dye based RT-qPCR analysis; assay type: cell-based
Chain of Protein arginine N-methyltransferase 5 (Homo sapiens) (O14744 whole entry): as the sequence (O14744 whole entry) above

[7] = biological target: T3, Histone-arginine methyltransferase CARM1 (Homo sapiens, UniProt Q86X55); assay: Inhibition of recombinant human N-terminal FLAG-tagged CARM1 (2 to end residues) expressed in HEK293F cells pretreated for 15 mins followed by substrate addition measured after 60 mins by Alphalisa assay; assay type: cell-based
T3 sequence (Q86X55 whole entry): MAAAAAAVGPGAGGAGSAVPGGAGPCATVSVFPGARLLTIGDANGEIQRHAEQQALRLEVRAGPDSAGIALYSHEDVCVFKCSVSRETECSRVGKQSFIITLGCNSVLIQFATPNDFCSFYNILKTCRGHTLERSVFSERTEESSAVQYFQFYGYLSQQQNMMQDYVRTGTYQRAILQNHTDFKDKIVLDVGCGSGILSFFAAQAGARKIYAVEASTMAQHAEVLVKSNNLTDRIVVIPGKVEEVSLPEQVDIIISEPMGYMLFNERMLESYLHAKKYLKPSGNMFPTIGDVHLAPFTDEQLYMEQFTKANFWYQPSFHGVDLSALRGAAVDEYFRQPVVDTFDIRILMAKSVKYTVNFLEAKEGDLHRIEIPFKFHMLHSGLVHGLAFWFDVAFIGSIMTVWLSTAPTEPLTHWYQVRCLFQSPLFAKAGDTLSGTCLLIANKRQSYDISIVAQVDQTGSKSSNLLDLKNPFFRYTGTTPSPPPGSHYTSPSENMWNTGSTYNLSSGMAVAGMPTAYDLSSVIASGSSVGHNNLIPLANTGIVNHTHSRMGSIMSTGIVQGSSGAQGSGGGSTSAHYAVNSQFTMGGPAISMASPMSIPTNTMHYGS

[8] = biological target: Protein arginine N-methyltransferase 1 (Homo sapiens, UniProt Q99873); assay: Inhibition of recombinant human N-terminal GST-tagged PRMT1 (2 to end residues) expressed in baculovirus infected Sf9 insect cells using peptide substrate pretreated for 15 mins followed by substrate/[3H]-SAM addition measured after 60 mins by scintillation proximity assay
Chain of Protein arginine N-methyltransferase 1 (Q99873 whole entry): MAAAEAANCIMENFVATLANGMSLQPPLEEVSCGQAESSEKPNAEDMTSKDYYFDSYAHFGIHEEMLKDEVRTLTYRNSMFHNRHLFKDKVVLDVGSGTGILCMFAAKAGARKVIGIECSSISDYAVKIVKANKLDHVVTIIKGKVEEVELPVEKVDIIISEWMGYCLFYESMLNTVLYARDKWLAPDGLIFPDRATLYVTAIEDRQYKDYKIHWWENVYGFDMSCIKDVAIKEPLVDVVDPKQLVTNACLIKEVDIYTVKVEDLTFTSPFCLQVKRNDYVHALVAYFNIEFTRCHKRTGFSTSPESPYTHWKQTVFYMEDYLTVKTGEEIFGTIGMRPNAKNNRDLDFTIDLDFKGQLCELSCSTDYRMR

MV4-11 = assay: Antiproliferative activity against human MV411 cells after 4 days by Celltiiter-Glo luminescence cell viability assay; settings: MV4-11, 96 h

Row | Structure (SMILES) | inhibition [1] | also measured
1 | CCCOc1ccc(Nc2nc(-c3cc4cc(OC)ccc4oc3=O)cs2)cc1 | 7% | –
2 | COc1ccc(OC)c(Nc2nc(-c3ccc(Cl)cc3Cl)cs2)c1 | 20% | –
3 | COc1ccccc1Nc1nc(-c2ccc3ccccc3c2)cs1 | 6% | –
4 | CCOc1ccc(-c2csc(Nc3ccc(Cl)cc3)n2)cc1[N+](=O)[O-] | 25% | –
5 | COc1ccc(-c2csc(NC(=S)NC(=O)c3ccc(C(C)(C)C)cc3)n2)cc1Br | 9% | –
6 | COc1ccc(-c2csc(NC(=O)c3ccccc3Cl)n2)cc1C | 3.5% | –
7 | COc1ccc(Nc2nc(-c3ccc(OCc4ccc([N+](=O)[O-])cc4)cc3)cs2)cc1 | 0% | –
8 | COc1ccc(Nc2nc(-c3cc4ccccc4o3)cs2)cc1 | 10% | –
9 | COc1cc(Nc2nc(-c3cc(C)ccc3C)cs2)c(OC)cc1Cl | 24% | –
10 | COc1ccc(Nc2nc(-c3ccc(OCc4ccc(Br)cc4)cc3)cs2)cc1 | 0% | –
11 | COc1cc(Cl)c(OC)c(Nc2nc(-c3ccc(C)cc3)cs2)c1 | 33% | –
12 | COc1ccc(-c2csc(Nc3ccc4c(c3)OCO4)n2)cc1Br | 25% | –
13 | NC(=O)N/N=C/c1ccc(-c2ccc(Cl)cc2)o1 | – | IC50 (PRMT5/MEP50 complex [2]): 570 nM
14 | COc1ccc(OC)c(Nc2nc(-c3ccc4ccccc4c3)cs2)c1 | 23% | –
15 | CCN(CC)CCCNC(=O)c1ccc(OC)c([N+](=O)[O-])c1 | – | IC50 (PRMT5/MEP50 complex [3]): 42 µM; inhibition [4]: > 50%
16 | COc1ccc(-c2csc(Nc3ccc(Cl)c(Cl)c3)n2)cc1 | 28.1% | –

Row | Structure (SMILES) | inhibition [1] | also measured
17 | COc1ccc(Cl)cc1C(=O)Nc1nc(-c2ccc(C)c(C)c2)cs1 | 3.5% | –
18 | COc1cccc(Nc2nc(-c3ccc(OC)c(Br)c3)cs2)c1 | 27.4% | –
19 | O=C(O)COc1ccc(Br)cc1-c1csc(Nc2ccc(Br)cc2)n1 | 61% | IC50 (PRMT5/MEP50 complex [3]): 44 µM
20 | OC(CNCc1c(OCc2ccccc2)ccc2ccccc12)c1ccccc1 (configuration not stated) | – | IC50 (PRMT5/MEP50 complex [5]): 2800 nM
21 | Cc1cc(-c2csc(Nc3ccc(O)c(C(=O)O)c3)n2)ccc1F | 71% | IC50 (PRMT5/MEP50 complex [3]): 22 µM
22 | COc1ccc(-c2csc(Nc3ccc(O)c(C(=O)O)c3)n2)cc1C | 95% | inhibition [6]: Active; IC50 [7]: > 100 µM; IC50 [8]: > 100 µM; EC50 (MV4-11): 22.5 µM; IC50 (PRMT5/MEP50 complex [3]): 14 µM
23 | CC[n+]1c(-c2ccccc2)csc1Nc1ccc(O)c(C(=O)O)c1 | 7% | –
24 | CCOc1ccccc1Nc1nc(-c2cc3cc(OC)ccc3oc2=O)cs1 | 0% | –
25 | COc1ccc(-c2csc(Nc3ccc(C)c(Cl)c3)n2)cc1F | 26.4% | –
26 | Cc1ccc(C)c(-c2csc(Nc3ccc(O)c(C(=O)O)c3)n2)c1 | 80% | IC50 (PRMT5/MEP50 complex [3]): 35 µM; inhibition [4]: > 50%
27 | COc1cc(Br)c(Br)c(/C=N/c2cccc(-c3nc4ccccc4[nH]3)c2)c1O | – | IC50 (PRMT5/MEP50 complex [3]): 48 µM; inhibition [4]: > 50%
28 | COc1ccccc1Nc1nc(-c2cc3cc(Br)ccc3oc2=O)cs1 | 9% | –
29 | COc1ccc(-c2csc(NC3=CS(=O)(=O)c4ccccc43)n2)cc1OC | 21% | –
30 | CCOc1cc(C(=O)Nc2nc(-c3ccc(C)cc3C)cs2)cc(OCC)c1OCC | 0% | –
31 | COc1ccc(Br)cc1C(=O)NC(=S)Nc1nc(-c2ccccc2)cs1 | 8% | –
